From ChEMBL document CHEMBL1201862, “PubChem BioAssay data set” (2004)
Active and inactive are the calls of the source.

Legend:
[1] = test system: Streptococcus sp. 'group A'; test: growth inhibition of control SK(-) GAS strain, dose response, counter-screen for streptokinase expression inhibitor project, luminescence, kanamycin, BacTiterGlo, confirmation (AID 1900); type: functional, organism-based
BJ [2] = test: cytotoxicity toward BJ-TERT fibroblasts, dose response, cell-based, RAS-independent, luminescence (AID 1933); type: functional; settings: Homo sapiens
BJ [3] = test: cells; type: functional, cell-based; settings: Homo sapiens
[4] = microbe, parasite or virus in culture; type: functional; settings: Mycobacterium tuberculosis
BJ [5] = test: cytotoxicity toward BJ-TERT-LT-ST fibroblasts, dose response, cell-based, RAS-independent, luminescence (AID 1935); type: functional; settings: Homo sapiens;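 also: BJ fibroblasts immortalized with TERT plus LT and ST oncogenes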
[6] = cytotoxicity toward DRD oncogenic fibroblasts, dose response, cell-based, non-viral oncogenic, luminescence (AID 1934); type: functional; settings: Homo sapiens
Streptococcus = test: Group A Streptococcus viability loss, dose response, counter-screen for streptokinase expression inhibitor project, luminescence, BacTiterGlo (AID 1915); type: functional, organism-based;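 also: potency for reduction of bacterial viability or growth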
BJ [7] = test: cytotoxicity toward Ras-transformed BJeLR fibroblasts, dose response, cell-based, alamar blue fluorescence, cherrypicked samples (AID 2631); type: functional; settings: Homo sapiens;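 also: confirmatory dose-response assay in RAS-dependent BJ fibroblasts engineered with TERT, LT and ST, with cytotoxicity read by fluorescence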
Cysteine protease ATG4B = molecular target: T1, Cysteine protease ATG4B (Homo sapiens, UniProt Q9Y4P1); type: functional;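 also: Fluorescence-based dose-response confirmation assay measuring inhibition of ATG4B activity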
T1 sequence (Q9Y4P1 whole entry): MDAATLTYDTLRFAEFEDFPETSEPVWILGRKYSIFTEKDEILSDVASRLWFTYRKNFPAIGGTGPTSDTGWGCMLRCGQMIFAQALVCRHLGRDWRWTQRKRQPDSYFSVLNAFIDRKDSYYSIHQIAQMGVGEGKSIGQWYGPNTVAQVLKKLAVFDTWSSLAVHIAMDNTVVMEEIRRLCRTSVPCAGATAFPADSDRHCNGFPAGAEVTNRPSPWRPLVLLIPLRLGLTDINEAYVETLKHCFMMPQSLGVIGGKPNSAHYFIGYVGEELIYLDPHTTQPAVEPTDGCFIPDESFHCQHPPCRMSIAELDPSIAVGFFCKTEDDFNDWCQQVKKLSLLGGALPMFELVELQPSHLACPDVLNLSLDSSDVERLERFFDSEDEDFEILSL

Phospholipase A2 = Phospholipase A2 (Homo sapiens, UniProt P04054); type: functional;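 also: confirmatory dose-response counterscreen on phospholipase A2, testing hits that came from an ultra-high-throughput screen for ATG4B inhibitors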
[8] = inhibitors of firefly luciferase expression or activity, dose response, H4 neuroglioma cells, luminescence (AID 1990); type: functional, cell-based
[9] = Luminescence Cell-Based Dose Response HTS to Identify Inhibitors of 5'UTR Stem-Loop Driven Prion Protein mRNA Translation in H4 Neuroglioblastoma Cells. [Related pubchem assays: 1827 (Project Summary), 1813 (Primary HTS)]; type: functional
[10] = inhibitors of SNCA 5'UTR-driven reporter translation, confirmation, H4 neuroglioma cells, luminescence (AID 1988); type: functional, cell-based
Protein Tat = molecular target: T2, Protein Tat (Human immunodeficiency virus type 1 group M subtype B (isolate HXB2)(HIV-1), UniProt P04608); type: functional;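 also: tat binding to TAR RNA read out by fluorescence polarization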
T2 sequence (P04608 whole entry): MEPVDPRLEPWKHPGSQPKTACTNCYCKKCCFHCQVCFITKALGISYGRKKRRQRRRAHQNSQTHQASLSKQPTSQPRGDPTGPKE

[11] = inhibitors of Vif binding to APOBEC3G peptide, primary screen, biochemical, TR-FRET, GST-Vif 1-94, biotin-A3G peptide, dose response retest (AID 1117319); type: functional;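 also: TR-FRET signal of purified GST-Vif binding a biotinylated A3G peptide; inhibitors lower the FRET signal by blocking Vif and A3G binding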
HEK293 = test: cells; type: functional, cell-based; settings: Homo sapiens
[12] = molecular target: T3, Nuclear receptor subfamily 0 group B member 1 (Homo sapiens, UniProt P51843); test: Luminescence-based cell-based high throughput dose response assay for inhibitors of the orphan nuclear receptor subfamily 0, group B, member 1 (DAX1; NR0B1). [Related pubchem assays (depositor defined):AID504766, AID504790]; type: functional
T3 sequence (P51843 whole entry): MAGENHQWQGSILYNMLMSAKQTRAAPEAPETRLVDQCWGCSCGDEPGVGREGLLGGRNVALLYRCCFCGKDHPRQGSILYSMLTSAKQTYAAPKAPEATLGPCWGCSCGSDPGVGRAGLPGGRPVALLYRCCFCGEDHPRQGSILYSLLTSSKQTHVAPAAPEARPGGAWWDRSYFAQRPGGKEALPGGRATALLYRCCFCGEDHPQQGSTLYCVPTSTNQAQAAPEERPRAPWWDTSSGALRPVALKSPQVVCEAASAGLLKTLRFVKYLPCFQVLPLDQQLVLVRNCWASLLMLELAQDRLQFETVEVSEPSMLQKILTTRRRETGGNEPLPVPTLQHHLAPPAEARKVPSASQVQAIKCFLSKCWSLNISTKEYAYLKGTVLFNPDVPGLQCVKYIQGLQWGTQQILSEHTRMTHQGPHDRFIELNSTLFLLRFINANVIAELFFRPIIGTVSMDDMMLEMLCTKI

Cryptococcus neoformans = test: PubChem AID 686997; type: functional, organism-based
[13] = HEK293T cell cytotoxicity, dose response, cytotoxicity control for HIV Vif inhibitor project, cherry-picks (AID 652208); type: functional, cell-based
[14] = molecular target: T4, High affinity choline transporter 1 (Homo sapiens, UniProt Q9GZV3); test: CHT inhibitors, dose response, cell-based, 5-point CRC, membrane potential dye (AID 504840); type: functional
T4 sequence (Q9GZV3 whole entry): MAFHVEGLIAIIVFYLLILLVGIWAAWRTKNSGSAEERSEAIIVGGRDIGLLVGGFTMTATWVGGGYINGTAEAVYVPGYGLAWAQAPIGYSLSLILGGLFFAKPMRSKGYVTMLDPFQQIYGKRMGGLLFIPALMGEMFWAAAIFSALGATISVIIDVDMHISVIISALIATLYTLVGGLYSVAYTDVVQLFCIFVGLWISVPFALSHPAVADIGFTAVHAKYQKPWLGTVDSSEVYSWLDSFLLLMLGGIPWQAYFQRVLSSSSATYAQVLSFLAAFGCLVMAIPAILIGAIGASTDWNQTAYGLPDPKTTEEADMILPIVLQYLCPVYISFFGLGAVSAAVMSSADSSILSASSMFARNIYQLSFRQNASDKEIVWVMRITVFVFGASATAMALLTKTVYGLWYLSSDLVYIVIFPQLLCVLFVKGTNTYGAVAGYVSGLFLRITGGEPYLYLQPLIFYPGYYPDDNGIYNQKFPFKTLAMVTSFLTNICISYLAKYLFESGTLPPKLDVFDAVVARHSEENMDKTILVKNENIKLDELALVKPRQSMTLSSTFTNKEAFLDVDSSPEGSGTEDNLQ

[15] = molecular target: T4, High affinity choline transporter 1; test: CHT inhibitors, dose response, cell-based, 10-point CRC, membrane potential dye (AID 588401); type: functional;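 also: membrane potential dye fluorescence of choline-evoked depolarization via CHT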

Sequence of Phospholipase A2 (P04054 whole entry): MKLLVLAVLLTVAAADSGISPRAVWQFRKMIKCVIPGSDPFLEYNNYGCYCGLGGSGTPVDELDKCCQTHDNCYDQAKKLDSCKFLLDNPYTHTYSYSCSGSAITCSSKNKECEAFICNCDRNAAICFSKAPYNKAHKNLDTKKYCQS

Structure (SMILES): Cc1nc(N)nc(N)c1CCCc1ccc(Cl)c(Cl)c1
- EC50 [1]: 1.03 µM (active)
- EC50 (BJ [2]): 17 µM (active)
- EC50 (BJ [3]): 1.36 µM (active)
- CC50 [4]: 4.07 µM (active)
- EC50 (BJ [5]): > 150 µM (not active)
- EC50 [6]: 3.05 µM (active)
- EC50 (Streptococcus): 4.01 µM (active)
- EC50 (BJ [7]): > 133 µM (inactive)

Structure (SMILES): Nc1nn(-c2ccccc2)c(N)c1N=Nc1ccc2c(c1)OCO2
- IC50 (Cysteine protease ATG4B): 15.9 µM (active)
- IC50 (Phospholipase A2): 10.4 µM (active)

Structure (SMILES): COc1ccc(-c2ccc(C#N)c(SCC(=O)Nc3sc4c(c3C#N)CCC4)n2)cc1OC
- EC50 [8]: 13.9 µM (active)
- EC50 [9]: > 120 µM (not active)
- EC50 [10]: 11.1 µM (active)
- IC50 (Cysteine protease ATG4B): 5.44 µM (active)
- IC50 (Phospholipase A2): 4.06 µM (active)
- IC50 (Protein Tat): > 100 µM (active)
- IC50 [11]: > 100 µM (active)

Structure (SMILES): O=C(COC(=O)CN1C(=O)NC2(CCCC2)C1=O)Nc1ccccc1C(F)(F)F
- IC50 (HEK293): > 67.5 µM (inactive)
- IC50 [12]: > 67.5 µM (inactive)

Structure (SMILES): O=C(CCc1ccccc1)NC(=S)Nc1ccccc1Br
- IC50 (HEK293): > 67.5 µM (inactive)
- IC50 [12]: > 67.5 µM (inactive)

Structure (SMILES): COC(=O)C1=C(C)N(Cc2ccc(F)cc2)C(=S)NC1c1cccc(Cl)c1 (stereo unspecified)
- AC50 (Cryptococcus neoformans): 49.5 µM (active)
- AC50 (Cryptococcus neoformans; Cryptococcus neoformans): > 70 µM (inactive)

Structure (SMILES): CCc1ccc2[nH]c3nc(SCC(=O)NNC(=O)c4ccc(C(C)(C)C)cc4)nnc3c2c1
- AC50 [13]: 28.6 µM (active)

Structure (SMILES): Cc1ccc(NS(=O)(=O)c2cccc(C(=O)NCC(c3ccco3)N3CCCCC3)c2)cc1 (stereo unspecified)
- IC50 [14]: 9.8 µM (active)
- IC50 [15]: 5.39 µM (active)
